The values below are quoted from earlier work in US11464736B2, “Thermally gelling drug formulations” (UNM Rainforest Innovations, priority 2019, dated 2022).

For series [1], the target named is CYP3A4 metabolizing enzyme (Homo sapiens, UniProt P08684).
Assay in series [2]: not given
This is another data set of the same source.

CYP3A4 metabolizing enzyme, sequence (P08684 whole entry): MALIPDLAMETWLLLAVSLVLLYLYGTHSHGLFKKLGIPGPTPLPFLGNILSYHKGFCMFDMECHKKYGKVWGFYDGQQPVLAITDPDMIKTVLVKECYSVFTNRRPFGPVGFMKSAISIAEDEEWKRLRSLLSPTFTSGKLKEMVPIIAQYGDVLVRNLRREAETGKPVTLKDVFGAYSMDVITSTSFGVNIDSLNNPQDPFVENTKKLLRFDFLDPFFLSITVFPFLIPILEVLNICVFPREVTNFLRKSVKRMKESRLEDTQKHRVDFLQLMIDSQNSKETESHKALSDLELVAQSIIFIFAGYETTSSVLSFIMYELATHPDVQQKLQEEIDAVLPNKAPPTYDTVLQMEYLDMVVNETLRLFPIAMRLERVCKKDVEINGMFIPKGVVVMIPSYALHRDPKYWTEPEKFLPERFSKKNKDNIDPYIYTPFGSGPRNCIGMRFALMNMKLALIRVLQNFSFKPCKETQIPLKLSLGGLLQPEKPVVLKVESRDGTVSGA

Take hydroxy-itraconazole: in series [1], the “inhibition of CYP3A4” value is “competitive inhibitors”.

Turning to `CC(=O)C(C)n1ncn(-c2ccc(N3CCN(c4ccc(OC[C@H]5CO[C@](Cn6cncn6)(c6ccc(Cl)cc6Cl)O5)cc4)CC3)cc2)c1=O` (mixture of isomers) [keto-itraconazole], the “inhibition of CYP3A4” value in series [1] was “competitive inhibitors”.

Consider `CCC(C)n1ncn(-c2ccc(N3CCN(c4ccc(OCC5COC(Cn6cncn6)(c6ccc(Cl)cc6Cl)O5)cc4)CC3)cc2)c1=O` (centres unmarked) [ITZ, Itraconazole], for which the “increase of oral bioavailability when taken with food” value is listed as 33-37%. Further, the “log P” value in series [2] is reported as 5.7-6.2.

In the case of `O=c1[nH]ncn1-c1ccc(N2CCN(c3ccc(OCC4COC(Cn5cncn5)(c5ccc(Cl)cc5Cl)O4)cc3)CC2)cc1` (centres unmarked) [N-desalkyl-itraconazole], the “inhibition of CYP3A4” value in series [1] is listed as “competitive inhibitors”.
